pIC50: −log10 of the molar value.
Experiments:
CYP2C9 = target: T1, CYP2C9 (Homo sapiens, UniProt P11712); assay: Inhibition of human liver microsomal CYP2C9 activity; type: in vitro ADME; settings: human liver microsomes, probe substrate diclofenac, NADPH
T1 construct: from tissue; host or cells: human liver microsomes
Protocol: (§1) A total of five specific probe substrates for the five isozymes of CYP, phenacetin (CYP1A2), diclofenac (CYP2C9), (S′)-mephenytoin (CYP2C19), dextromethorphan ([…]), and midazolam (CYP3A4), were incubated respectively with human liver microsomes and the test compounds, and the reaction was initiated by the addition of reduced nicotinamide adenine dinucleotide phosphate (NADPH), and the samples were treated and the concentrations of the five metabolites produced by the specific substrates, acetaminophen, 4′-hydroxydiclofenac, 4′-hydroxymephenytoin, dextrorphan and 1′-hydroxymidazolam were measured by liquid chromatography tandem mass spectrometry (LC-MS/MS) after the end of the reaction, and the corresponding half maximal inhibitory concentrations (IC50) were calculated.

CCR2 = target: T2, CCR2 (Homo sapiens, UniProt P41597); assay: CCR2 FLIPR Calcium assay (intracellular calcium signaling); type: cell-based; settings: HEK293 host cells, clone C7; agonist MCP-1; Fluo-4 calcium signal
T2 construct: expressed in transfected cells; host or cells: HEK293, clone C7, passage P6
T2 sequence (P41597 whole entry, species assumed): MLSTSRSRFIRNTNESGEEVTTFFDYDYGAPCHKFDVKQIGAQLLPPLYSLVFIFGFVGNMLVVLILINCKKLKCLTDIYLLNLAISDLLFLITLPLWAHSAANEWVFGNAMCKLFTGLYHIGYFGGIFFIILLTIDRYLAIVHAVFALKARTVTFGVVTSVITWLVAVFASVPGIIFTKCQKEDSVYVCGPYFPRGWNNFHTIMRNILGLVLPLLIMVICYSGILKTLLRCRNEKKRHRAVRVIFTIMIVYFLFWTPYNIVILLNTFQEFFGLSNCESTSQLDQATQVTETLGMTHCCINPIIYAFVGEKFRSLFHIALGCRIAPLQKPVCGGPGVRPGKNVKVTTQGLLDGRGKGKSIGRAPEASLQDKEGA
Protocol: (§2) The inhibitory effects of the compounds on CCR2 and CCR5 receptors were evaluated by detecting intracellular calcium signaling changes by FLIPR Calcium assay, using the IC50 values of the compounds as indicators.
(§3) 1. Cell lines: The cells were seeded and incubated overnight at 37° C. in a 5% CO2 incubator CCR2/CCR5 density: 1 M (20 k/well)
(§4) 2. Reagent: Fluo-4 Direct, (Invitrogen, Cat #F10471)
(§5) The compound was prepared by dissolving in DMSO to a 10 mM solution, and the compound solution was placed in a nitrogen chamber.
(§6) Preparation of probenecid in FLIPR assay buffer: 1 mL of FLIPR assay buffer was added to 77 mg of probenecid to make a 250 mM solution. The solution was prepared every day to keep fresh.
(§7) 2× (8 μM) Fluo-4 Direct™ loading buffer (10 mL of each)
(§8) 0.2 mL of probenecid was added to each 10 mL of Fluo-Direct. The final measured concentration was 2.5 mM MCP-1 was diluted in FLIPR assay buffer 1:2 for 10 spots, starting at 0.5 μM (eventually to […]). RANTES was diluted in FLIPR assay buffer 1:3 for 10 spots, starting at 0.5 μM (eventually to […]). 20 μL of serially diluted compound buffer was added to each well of the DRC plate.
(§9) The standard compound was diluted in DMSO 1:3 for 11 points, starting at 1 mM.
(§10) The test compound was diluted in DMSO 1:3 for 11 spots, starting at 2 mM. 250 nL of compound solution was transferred to cell plates using Echo (Greiner #781946) c) The cell plate was taken from the incubator and 20 μL of 2× Fluo-4 Direct no wash loading buffer was gently dispensed into a 384-well cell culture plate using a pipette. The volume in the final cell plate was 40 μL […]
(§11) d) Incubation was conducted at 37° C. 5% CO2 for 50 minutes, at room temperature for 10 minutes e) The cell plate was taken from the incubator and placed in the FLIPR. The composite plate and pipette tip box were placed in the FLIPR
(§12) 5) The “Max-Min” was calculated from Read 90 to the maximum allowed. EC80 values for each cell line were calculated using FLIPR
(§13) 6) Agonist reference compound at 5 times EC80 concentration was prepared 2) 10 μL of agonist reference compound at 5 times EC80 concentration was transferred from the composite plate to the cell plate.
(§14) 3) Fluorescence signals were read.
(§15) 4) The “Max-Min” was calculated from Read 90 to the maximum allowed h) Data was analyzed by using Prism, the IC50 values of the compounds were calculated.

CYP1A2 = target: T3, CYP1A2 (Homo sapiens, UniProt P05177); assay: Inhibition of human liver microsomal CYP1A2 activity; type: in vitro ADME; settings: human liver microsomes, probe substrate phenacetin, NADPH
T3 construct: from tissue; host or cells: human liver microsomes
T3 sequence (P05177 1-516): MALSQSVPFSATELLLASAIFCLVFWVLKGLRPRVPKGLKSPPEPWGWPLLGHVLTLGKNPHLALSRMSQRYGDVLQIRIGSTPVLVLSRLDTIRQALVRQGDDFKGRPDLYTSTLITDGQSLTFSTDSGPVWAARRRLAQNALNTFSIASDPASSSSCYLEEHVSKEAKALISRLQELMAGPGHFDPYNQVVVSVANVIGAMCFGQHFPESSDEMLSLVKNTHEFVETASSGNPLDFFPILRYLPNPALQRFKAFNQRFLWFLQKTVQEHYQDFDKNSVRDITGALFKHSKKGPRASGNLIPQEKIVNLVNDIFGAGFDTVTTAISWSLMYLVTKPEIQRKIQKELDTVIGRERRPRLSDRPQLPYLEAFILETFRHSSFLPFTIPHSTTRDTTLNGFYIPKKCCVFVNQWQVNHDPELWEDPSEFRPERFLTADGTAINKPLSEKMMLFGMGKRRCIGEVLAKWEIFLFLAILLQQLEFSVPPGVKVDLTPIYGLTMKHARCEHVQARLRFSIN
Protocol: as §1

CCR5 = target: T4, CCR5 (Homo sapiens, UniProt P51681); assay: CCR5 FLIPR Calcium assay (intracellular calcium signaling); type: cell-based; settings: HEK293 host cells, clone C13; agonist RANTES; Fluo-4 calcium signal
T4 construct: expressed in transfected cells; host or cells: HEK293, clone C13, passage P4
T4 sequence (P51681 whole entry, species assumed): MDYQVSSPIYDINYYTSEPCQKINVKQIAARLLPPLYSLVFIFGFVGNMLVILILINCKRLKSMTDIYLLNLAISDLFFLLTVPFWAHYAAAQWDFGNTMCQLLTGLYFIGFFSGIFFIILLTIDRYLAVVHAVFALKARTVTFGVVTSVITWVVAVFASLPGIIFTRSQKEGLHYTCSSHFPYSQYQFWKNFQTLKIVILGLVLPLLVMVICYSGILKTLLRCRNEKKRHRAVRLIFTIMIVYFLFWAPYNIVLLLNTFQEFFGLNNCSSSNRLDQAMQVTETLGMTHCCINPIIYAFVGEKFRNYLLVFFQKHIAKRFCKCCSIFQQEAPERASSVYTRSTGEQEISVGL
Protocol: as §2, §3, §4, §5, §6, §7, §8, §9, §10, §11, §12, §13, §14, §15

CYP2D6 = target: T5, CYP2D6 (Homo sapiens, UniProt P10635); assay: Inhibition of human liver microsomal CYP2D6 activity; type: in vitro ADME; settings: human liver microsomes, probe substrate dextromethorphan, NADPH
T5 construct: from tissue; host or cells: human liver microsomes
T5 sequence (P10635 whole entry): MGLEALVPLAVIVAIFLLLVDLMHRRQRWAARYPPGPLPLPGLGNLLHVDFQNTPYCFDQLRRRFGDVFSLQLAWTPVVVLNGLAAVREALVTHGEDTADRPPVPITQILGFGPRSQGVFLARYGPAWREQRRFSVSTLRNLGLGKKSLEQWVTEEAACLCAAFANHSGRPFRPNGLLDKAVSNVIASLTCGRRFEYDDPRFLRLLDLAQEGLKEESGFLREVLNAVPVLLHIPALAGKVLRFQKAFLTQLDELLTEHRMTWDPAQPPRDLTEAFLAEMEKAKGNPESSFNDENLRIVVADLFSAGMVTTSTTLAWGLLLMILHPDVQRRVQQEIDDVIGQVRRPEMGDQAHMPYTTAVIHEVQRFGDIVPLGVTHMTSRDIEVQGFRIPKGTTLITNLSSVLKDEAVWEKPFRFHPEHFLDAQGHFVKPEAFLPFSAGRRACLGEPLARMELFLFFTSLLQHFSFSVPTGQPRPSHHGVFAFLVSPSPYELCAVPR
Protocol: as §1

CYP3A4 = target: T6, CYP3A4 (Homo sapiens, UniProt P08684); assay: Inhibition of human liver microsomal CYP3A4 activity; type: in vitro ADME; settings: human liver microsomes, probe substrate midazolam, NADPH
T6 construct: from tissue; host or cells: human liver microsomes
T6 sequence (P08684 whole entry): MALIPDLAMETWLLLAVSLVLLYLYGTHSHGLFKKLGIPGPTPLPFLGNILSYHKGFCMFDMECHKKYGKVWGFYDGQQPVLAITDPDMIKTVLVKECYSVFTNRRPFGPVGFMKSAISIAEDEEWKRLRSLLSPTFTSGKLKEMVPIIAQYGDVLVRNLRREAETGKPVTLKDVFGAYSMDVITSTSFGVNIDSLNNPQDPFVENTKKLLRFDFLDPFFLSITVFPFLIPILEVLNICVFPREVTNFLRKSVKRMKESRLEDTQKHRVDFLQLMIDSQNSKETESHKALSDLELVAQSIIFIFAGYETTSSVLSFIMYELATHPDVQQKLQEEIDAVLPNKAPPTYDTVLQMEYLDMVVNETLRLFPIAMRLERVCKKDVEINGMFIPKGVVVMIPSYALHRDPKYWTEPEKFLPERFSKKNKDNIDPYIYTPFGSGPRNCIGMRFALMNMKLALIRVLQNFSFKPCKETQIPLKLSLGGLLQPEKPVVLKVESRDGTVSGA
Protocol: as §1

CYP2C19 = target: T7, CYP2C19 (Homo sapiens, UniProt P33261); assay: Inhibition of human liver microsomal CYP2C19 activity; type: in vitro ADME; settings: human liver microsomes, probe substrate (S)-mephenytoin, NADPH
T7 construct: from tissue; host or cells: human liver microsomes
T7 sequence (P33261 whole entry): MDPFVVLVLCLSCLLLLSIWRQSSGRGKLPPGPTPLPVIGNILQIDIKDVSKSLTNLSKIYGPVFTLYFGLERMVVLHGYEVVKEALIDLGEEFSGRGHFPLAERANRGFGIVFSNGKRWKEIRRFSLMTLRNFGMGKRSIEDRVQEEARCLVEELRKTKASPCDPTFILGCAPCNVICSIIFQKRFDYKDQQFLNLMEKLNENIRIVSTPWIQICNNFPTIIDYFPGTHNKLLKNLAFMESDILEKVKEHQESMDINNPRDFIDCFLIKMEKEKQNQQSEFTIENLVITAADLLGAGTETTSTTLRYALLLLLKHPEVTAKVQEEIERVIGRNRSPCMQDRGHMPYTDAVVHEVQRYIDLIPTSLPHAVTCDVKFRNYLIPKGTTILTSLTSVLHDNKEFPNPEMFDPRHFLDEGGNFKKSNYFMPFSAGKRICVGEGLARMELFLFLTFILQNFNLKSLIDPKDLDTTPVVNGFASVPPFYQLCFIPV
Protocol: as §1

[1] = test system: human liver microsomal cytochrome P450 isozymes (CYP1A2, CYP2B6, CYP2C8, CYP2C9, CYP2C19, CYP2D6 and CYP3A4); assay: Inhibition of human liver microsomal cytochrome P450 isozymes, overall conclusion; type: in vitro ADME; settings: human liver microsomes
Protocol: as §1

[2] = Comparative pharmacokinetic test in mice; type: in vivo, C57BL/6 male mice
Protocol: C57BL/6 male mice were used as test animals in the present study, and the plasma drug concentrations of the test compound WX009 and the reference compound in mice by intravenous administration or oral administration were quantified by LC/MS/MS method at different time points respectively to evaluate the pharmacokinetic characteristics of the two test drugs in mice.
A clarified solution of the test compound was injected via tail vein into C57BL/6 mice (overnight fasting, 7-10 weeks old), and the test compound was given by gavage into C57BL/6 mice (overnight fasting, 7-10 weeks old). Approximately 30 μL of blood was collected from the jugular or tail vein at 0.0833, 0.25, 0.5, 1, 2, 4, 6, 8, and 24 hours after administration, and placed in anticoagulation tubes added with EDTA-K2, then centrifuged at 4° C. for 15 minutes at 3000 g to give the plasma. Plasma drug concentration was determined by LC-MS/MS, and relevant pharmacokinetic parameters were calculated using WinNonlin™ Version 6.3 (Pharsight, Mountain View, CA) pharmacokinetic software with a non-compartmental model linear logarithmic trapezoidal method.

T1 sequence (P11712 whole entry): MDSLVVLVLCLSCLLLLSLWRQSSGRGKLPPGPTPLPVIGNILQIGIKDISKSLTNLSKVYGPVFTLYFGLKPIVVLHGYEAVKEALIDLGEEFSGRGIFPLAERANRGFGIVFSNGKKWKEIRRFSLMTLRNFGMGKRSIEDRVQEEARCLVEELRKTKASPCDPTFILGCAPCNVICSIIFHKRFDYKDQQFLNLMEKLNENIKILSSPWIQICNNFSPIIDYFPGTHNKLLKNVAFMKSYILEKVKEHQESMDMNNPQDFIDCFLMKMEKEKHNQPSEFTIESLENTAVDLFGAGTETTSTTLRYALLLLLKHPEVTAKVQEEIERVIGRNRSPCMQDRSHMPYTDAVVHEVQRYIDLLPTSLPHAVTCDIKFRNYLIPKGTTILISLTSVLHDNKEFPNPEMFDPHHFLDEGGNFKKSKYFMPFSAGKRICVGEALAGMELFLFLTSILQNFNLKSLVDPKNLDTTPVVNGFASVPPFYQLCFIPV

pIC50 (CYP2C9) | pIC50 (CCR2) | pIC50 (CYP1A2) | pIC50 (CCR5) | pIC50 (CYP2D6) | pIC50 (CYP3A4) | pIC50 (CYP2C19) | Risk of inhibition of human liver microsomal cytochrome P450 isozymes (in words) [1] | half-life ([2]; male, C57BL/6, mouse, plasma, mice, intravenous injection 2 mg/kg) | clearance ([2]; male, C57BL/6, mouse, plasma, mice, intravenous injection 2 mg/kg, read-out: Plasma clearance rate) | bioavailability ([2]; male, C57BL/6, mouse, plasma, mice, oral 10 mg/kg) | Plasma clearance rate compared with the reference compound (in words) ([2]; mice, intravenous) | Oral plasma systemic exposure (AUC0-inf) relative to the reference compound ([2]; mice, oral) | Area under the time-concentration curve (0-inf) ([2]; mice, oral 10 mg/kg) | Peak concentration ([2]; mice, oral 10 mg/kg) | Peak time ([2]; mice, oral 10 mg/kg) | Pharmacokinetics compared with the reference compound (in words) ([2]; rodent mice) | SMILES
< 4.30 | 8.71 | < 4.30 | 8.24 | < 4.30 | < 4.30 | < 4.30 | no risk of inhibition |  |  |  |  |  |  |  |  |  | CCCCOCCOc1ccc(-c2ccc3c(c2)C=C(C(=O)Nc2ccc([S+]([O-])Cc4c(CC)ccnc4C)cc2)CCCN3CC2CCOCC2)cc1 (single isomer, unassigned) [WX007]
< 4.30 | 8.74 | < 4.30 | 8.33 | < 4.30 | 5.34 | < 4.30 | no risk of inhibition | 4.4 h | 0.46 mL/min/kg | 8% | slower | approximately six times higher | 37.356 µM·h | 5.076 µM | 2.0 h | significantly better | CCCCOCCOc1ccc(-c2ccc3c(c2)C=C(C(=O)Nc2ccc([S+]([O-])Cc4c(CC)ccnc4C)cc2)CCCN3CC2CCCO2)cc1 (single isomer, unassigned) [WX009]
4.65 | 8.82 | < 4.30 | 8.08 | < 4.30 | < 4.30 | 5.00 | no risk of inhibition |  |  |  |  |  |  |  |  |  | CCCCOCCOc1ccc(-c2ccc3c(c2)C=C(C(=O)Nc2ccc([S+]([O-])Cc4cnc(C)cc4CC)cc2)CCCN3CC2CCOCC2)cc1 (single isomer, unassigned) [WX012]
